Measurements taken from US6673938B1, “Substituted pyridine herbicides” (Syngenta Participations AG, priority 1998, dated 2004).

Tests used:
[1] = tested on: Monocotyledonous and dicotyledonous test plants; experiment: Herbicidal action before emergence of the plants (pre-emergence action); type: in vivo; conditions: evaluated after 3 weeks, nine-step scale; for Pre-emergence action, Abutilon / Pre-emergence action, Amaranthus / Pre-emergence action, Chenop. / Pre-emergence action, Digitaria / Pre-emergence action, Echino. / Pre-emergence action, Panicum: 250 g/ha; for pre-emergence action, Cyperus / pre-emergence action, Ipomoea / pre-emergence action, Setaria / pre-emergence action, Sinapis / pre-emergence action, Solanum / pre-emergence action, Stellaria: 2000 g/ha
Experimental: Monocotyledonous and dicotyledonous test plants are sown in standard soil in plastic pots. Immediately after sowing, the test substances as aqueous suspensions (prepared with a 25% wettable powder (Example F3, b) in accordance with WO 97/34485) or as emulsions (prepared with a 25% emulsion concentrate (Example F1, c)) are sprayed on at a rate of 2 kg of a.i./ha or 250 g of a.i./ha (500 l of water/ha). The test plants are then grown in the greenhouse under optimal conditions. After a test period of 3 weeks, the experiment is evaluated with reference to a nine-step scale (1=complete damage, 9=no effect). Score figures of 1 to 4 (in particular 1 to 3) mean a good to very good herbicidal action.

[2] = tested on: Monocotyledonous and dicotyledonous test plants; experiment: Post-emergence herbicidal action; type: in vivo; conditions: evaluated after approximately 18 days; for Post-emergence action: Abutilon (score, nine-step scale) / Post-emergence action: Chenop. (score, nine-step scale) / Post-emergence action: Digitaria (score, nine-step scale) / Post-emergence action: Echino. (score, nine-step scale) / Post-emergence action: Ipopur. (score, nine-step scale) / Post-emergence action: Panicum (score, nine-step scale) / Post-emergence action: Xanth. (score, nine-step scale): 250 g/ha, sprayed at 4- to 6-leaf stage; for Post-emergence action, Ipomoea / Post-emergence action, Lolium / Post-emergence action, Setaria / Post-emergence action, Sinapis / Post-emergence action, Solanum / Post-emergence action, Stellaria: 2000 g/ha, sprayed in 4- to 6-leaf stage, nine-step scale
Procedure, shortened: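 Greenhouse plants sprayed at the 4- to 6-leaf stage with test substance as wettable-powder suspension or emulsion-concentrate emulsion, 2 kg or 250 g a.i./ha in 500 l water/ha. Scored after about 18 days on a nine-step scale (1=complete damage, 9=no effect).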

CCOC(=O)OCc1nc(C(F)(F)F)ccc1C(=O)C1=C(O)C(C)(C)C(=O)C(C)(C)C1=O [Compound A1208-B354]
Pre-emergence action, Abutilon [1]: 1
Pre-emergence action, Amaranthus [1]: 1
Pre-emergence action, Chenop. [1]: 1
Pre-emergence action, Digitaria [1]: 1
Pre-emergence action, Echino. [1]: 1
Pre-emergence action, Panicum [1]: 1
Post-emergence action: Abutilon (score, nine-step scale) [2]: 1
Post-emergence action: Chenop. (score, nine-step scale) [2]: 2
Post-emergence action: Digitaria (score, nine-step scale) [2]: 4
Post-emergence action: Echino. (score, nine-step scale) [2]: 2
Post-emergence action: Ipopur. (score, nine-step scale) [2]: 2
Post-emergence action: Panicum (score, nine-step scale) [2]: 3
Post-emergence action: Xanth. (score, nine-step scale) [2]: 2

Cc1nc(C(F)(F)F)ccc1C(=O)C1=C(O)C(C)(C)C(C)CC1=O (stereo not drawn) [Compound A2-B156]
pre-emergence action, Cyperus [1]: 1
pre-emergence action, Ipomoea [1]: 2
pre-emergence action, Setaria [1]: 1
pre-emergence action, Sinapis [1]: 2
pre-emergence action, Solanum [1]: 1
pre-emergence action, Stellaria [1]: 2
Post-emergence action, Ipomoea [2]: 1
Post-emergence action, Lolium [2]: 2
Post-emergence action, Setaria [2]: 2
Post-emergence action, Sinapis [2]: 1
Post-emergence action, Solanum [2]: 2
Post-emergence action, Stellaria [2]: 2

Cc1nc(C(F)(F)F)ccc1C(=O)C1=C(O)C(C)C(C)(C)CC1=O (stereo not drawn) [Compound A2-B1095]
pre-emergence action, Cyperus [1]: 3
pre-emergence action, Ipomoea [1]: 4
pre-emergence action, Setaria [1]: 2
pre-emergence action, Sinapis [1]: 2
pre-emergence action, Solanum [1]: 1
pre-emergence action, Stellaria [1]: 2
Post-emergence action, Ipomoea [2]: 1
Post-emergence action, Lolium [2]: 2
Post-emergence action, Setaria [2]: 4
Post-emergence action, Sinapis [2]: 1
Post-emergence action, Solanum [2]: 2
Post-emergence action, Stellaria [2]: 2

CCC1(C)CC(C)C(=O)C(C(=O)c2ccc(C(F)(F)F)nc2C)=C1O (stereo not drawn) [Compound A2-B69]
pre-emergence action, Cyperus [1]: 1
pre-emergence action, Ipomoea [1]: 4
pre-emergence action, Setaria [1]: 2
pre-emergence action, Sinapis [1]: 2
pre-emergence action, Solanum [1]: 1
pre-emergence action, Stellaria [1]: 1
Post-emergence action, Ipomoea [2]: 1
Post-emergence action, Lolium [2]: 2
Post-emergence action, Setaria [2]: 2
Post-emergence action, Sinapis [2]: 1
Post-emergence action, Solanum [2]: 2
Post-emergence action, Stellaria [2]: 2

COCc1nc(C(F)(F)F)ccc1C(=O)C1=C(O)C(C)(C)OCC1=O [Compound A8-B552]
Pre-emergence action, Abutilon [1]: 1
Pre-emergence action, Amaranthus [1]: 4
Pre-emergence action, Chenop. [1]: 1
Pre-emergence action, Digitaria [1]: 3
Pre-emergence action, Echino. [1]: 4
Pre-emergence action, Panicum [1]: 2
Post-emergence action: Abutilon (score, nine-step scale) [2]: 2
Post-emergence action: Chenop. (score, nine-step scale) [2]: 2
Post-emergence action: Digitaria (score, nine-step scale) [2]: 3
Post-emergence action: Echino. (score, nine-step scale) [2]: 3
Post-emergence action: Ipopur. (score, nine-step scale) [2]: 2
Post-emergence action: Panicum (score, nine-step scale) [2]: 2
Post-emergence action: Xanth. (score, nine-step scale) [2]: 2

Cc1nc(C(F)(F)F)ccc1C(=O)C1=C(O)C(C)(C)CC2(CCC2)C1=O [Compound A2-C147]
pre-emergence action, Cyperus [1]: 2
pre-emergence action, Ipomoea [1]: 4
pre-emergence action, Setaria [1]: 2
pre-emergence action, Sinapis [1]: 2
pre-emergence action, Solanum [1]: 2
pre-emergence action, Stellaria [1]: 2
Post-emergence action, Ipomoea [2]: 1
Post-emergence action, Lolium [2]: 2
Post-emergence action, Setaria [2]: 2
Post-emergence action, Sinapis [2]: 1
Post-emergence action, Solanum [2]: 2
Post-emergence action, Stellaria [2]: 2

Cc1nc(C(F)(F)F)ccc1C(=O)C1=C(O)C(C)(C)CC2(CC2)C1=O [Compound A2-C24]
pre-emergence action, Cyperus [1]: 1
pre-emergence action, Ipomoea [1]: 2
pre-emergence action, Setaria [1]: 1
pre-emergence action, Sinapis [1]: 1
pre-emergence action, Solanum [1]: 1
pre-emergence action, Stellaria [1]: 2
Post-emergence action, Ipomoea [2]: 1
Post-emergence action, Lolium [2]: 1
Post-emergence action, Setaria [2]: 1
Post-emergence action, Sinapis [2]: 1
Post-emergence action, Solanum [2]: 1
Post-emergence action, Stellaria [2]: 1

Cc1nc(C(F)(F)F)ccc1C(=O)C1=C(O)CCC2(CCC2)C1=O [Compound A2-C146]
pre-emergence action, Cyperus [1]: 1
pre-emergence action, Ipomoea [1]: 2
pre-emergence action, Setaria [1]: 2
pre-emergence action, Sinapis [1]: 2
pre-emergence action, Solanum [1]: 1
pre-emergence action, Stellaria [1]: 2
Post-emergence action, Ipomoea [2]: 1
Post-emergence action, Lolium [2]: 2
Post-emergence action, Setaria [2]: 2
Post-emergence action, Sinapis [2]: 1
Post-emergence action, Solanum [2]: 2
Post-emergence action, Stellaria [2]: 2

COCc1nc(C(F)(F)F)ccc1C(=O)C1=C(O)CCCC1=O [Compound A8-B1]
Pre-emergence action, Abutilon [1]: 1
Pre-emergence action, Amaranthus [1]: 1
Pre-emergence action, Chenop. [1]: 1
Pre-emergence action, Digitaria [1]: 2
Pre-emergence action, Echino. [1]: 2
Pre-emergence action, Panicum [1]: 2
Post-emergence action: Abutilon (score, nine-step scale) [2]: 3
Post-emergence action: Chenop. (score, nine-step scale) [2]: 2
Post-emergence action: Digitaria (score, nine-step scale) [2]: 3
Post-emergence action: Echino. (score, nine-step scale) [2]: 3
Post-emergence action: Ipopur. (score, nine-step scale) [2]: 3
Post-emergence action: Panicum (score, nine-step scale) [2]: 4
Post-emergence action: Xanth. (score, nine-step scale) [2]: 3

CCN(CC)CC.COCc1nc(C(F)(F)F)ccc1C(=O)C1=C(O)CC(C)CC1=O (stereo not drawn) [Compound A8-B1101]
pre-emergence action, Cyperus [1]: 2
pre-emergence action, Ipomoea [1]: 4
pre-emergence action, Setaria [1]: 2
pre-emergence action, Sinapis [1]: 2
pre-emergence action, Solanum [1]: 1
pre-emergence action, Stellaria [1]: 1
Post-emergence action, Ipomoea [2]: 2
Post-emergence action, Lolium [2]: 3
Post-emergence action, Setaria [2]: 2
Post-emergence action, Sinapis [2]: 1
Post-emergence action, Solanum [2]: 2
Post-emergence action, Stellaria [2]: 2

CSC1(C)CC(C)C(=O)C(C(=O)c2ccc(C(F)(F)F)nc2C)=C1O (stereo not drawn) [Compound A2-B73]
pre-emergence action, Cyperus [1]: 3
pre-emergence action, Ipomoea [1]: 4
pre-emergence action, Setaria [1]: 2
pre-emergence action, Sinapis [1]: 2
pre-emergence action, Solanum [1]: 2
pre-emergence action, Stellaria [1]: 2
Post-emergence action, Ipomoea [2]: 1
Post-emergence action, Lolium [2]: 3
Post-emergence action, Setaria [2]: 2
Post-emergence action, Sinapis [2]: 1
Post-emergence action, Solanum [2]: 1
Post-emergence action, Stellaria [2]: 2

Cc1nc(C(F)(F)F)ccc1C(=O)C1=C(O)CCC2(CC2)C1=O [Compound A2-C1]
pre-emergence action, Cyperus [1]: 2
pre-emergence action, Ipomoea [1]: 3
pre-emergence action, Setaria [1]: 1
pre-emergence action, Sinapis [1]: 2
pre-emergence action, Solanum [1]: 1
pre-emergence action, Stellaria [1]: 2
Post-emergence action, Ipomoea [2]: 3
Post-emergence action, Lolium [2]: 2
Post-emergence action, Setaria [2]: 2
Post-emergence action, Sinapis [2]: 1
Post-emergence action, Solanum [2]: 2
Post-emergence action, Stellaria [2]: 2

Cc1nc(C(F)(F)F)ccc1C(=O)C1=C(O)CC(C)(C)CC1=O [Compound A2-B1063]
pre-emergence action, Cyperus [1]: 1
pre-emergence action, Ipomoea [1]: 2
pre-emergence action, Setaria [1]: 1
pre-emergence action, Sinapis [1]: 2
pre-emergence action, Solanum [1]: 1
pre-emergence action, Stellaria [1]: 2
Post-emergence action, Ipomoea [2]: 2
Post-emergence action, Lolium [2]: 2
Post-emergence action, Setaria [2]: 4
Post-emergence action, Sinapis [2]: 1
Post-emergence action, Solanum [2]: 2
Post-emergence action, Stellaria [2]: 2

CCC1CC(C)(C)C(=O)C(C(=O)c2ccc(C(F)(F)F)nc2C)=C1O (stereo not drawn) [Compound A2-B1089]
pre-emergence action, Cyperus [1]: 1
pre-emergence action, Ipomoea [1]: 2
pre-emergence action, Setaria [1]: 2
pre-emergence action, Sinapis [1]: 2
pre-emergence action, Solanum [1]: 1
pre-emergence action, Stellaria [1]: 2
Post-emergence action, Ipomoea [2]: 1
Post-emergence action, Lolium [2]: 2
Post-emergence action, Setaria [2]: 2
Post-emergence action, Sinapis [2]: 1
Post-emergence action, Solanum [2]: 1
Post-emergence action, Stellaria [2]: 2
